ChEMBL document CHEMBL4825698, “Identification of novel benzothiopyranones with ester and amide motifs derived from active metabolite as promising leads against Mycobacterium tuberculosis” (Eur J Med Chem, 2021)
≈ marks a conversion by molar mass, not a printed value.

What was measured:
Vero = experiment: Cytotoxicity against African green monkey Vero cells assessed as reduction in cell viability after 48 hrs by MTT assay; assay type: cell-based; conditions: Chlorocebus sabaeus
[1] = test system: Mycobacterium tuberculosis; experiment: Antimycobacterial activity against Mycobacterium tuberculosis H37Rv assessed as bacterial growth inhibition incubated for 7 days by MABA assay; assay type: functional; conditions: 168 h, time 7 day
[2] = Metabolic stability in pooled mouse hepatocytes assessed as half life; assay type: ADME, cell-based, Hepatocyte
[3] = Metabolic stability in pooled mouse hepatocytes assessed as parent compound remaining after 30 mins; assay type: ADME, cell-based, Hepatocyte; conditions: read-out: Stabilty
[4] = Metabolic stability in pooled human hepatocytes assessed as half life; assay type: ADME, cell-based, Hepatocyte
[5] = Metabolic Stability in pooled human hepatocytes assessed as parent compound remaining after 30 mins; assay type: ADME, cell-based, Hepatocyte; conditions: read-out: Stabilty

SMILES	IC50 (Vero) [µg/mL]	MIC [1] [µg/mL]	half-life [2] [min]	remaining at 0.5 h [3] [%]	half-life [4] [min]	remaining at 0.5 h [5] [%]
O=C(OC1CCC(CN2CCN(c3cc(=O)c4cc(C(F)(F)F)cc([N+](=O)[O-])c4s3)CC2)CC1)c1cccc(F)c1 (configuration not stated)	> 64	< 0.016	–	–	–	–
O=c1cc(N2CCN(CC3CCC(OS(=O)(=O)c4cccnc4)CC3)CC2)sc2c([N+](=O)[O-])cc(C(F)(F)F)cc12 (configuration not stated)	> 64	< 0.016	–	–	–	–
O=C(OC1CCC(CN2CCN(c3cc(=O)c4cc(C(F)(F)F)cc([N+](=O)[O-])c4s3)CC2)CC1)C1CCCCC1 (configuration not stated)	> 64	< 0.016	4.7	1.2	5.8	2.8
CS(=O)(=O)OC1CCC(CN2CCN(c3cc(=O)c4cc(C(F)(F)F)cc([N+](=O)[O-])c4s3)CC2)CC1 (configuration not stated)	> 64	< 0.016	–	–	–	–
CS(=O)(=O)NC1CCC(CN2CCN(c3cc(=O)c4cc(C(F)(F)F)cc([N+](=O)[O-])c4s3)CC2)CC1 (configuration not stated)	48.4 (≈ 88.3 µM)	> 32	> 93.2	111	> 93.2	105
Cc1ccc(C(=O)OC2CCC(CN3CCN(c4cc(=O)c5cc(C(F)(F)F)cc([N+](=O)[O-])c5s4)CC3)CC2)cc1 (configuration not stated)	> 64	0.031 (≈ 0.0526 µM)	12.1	18	8.9	9.7
C=CC(=O)OC1CCC(CN2CCN(c3cc(=O)c4cc(C(F)(F)F)cc([N+](=O)[O-])c4s3)CC2)CC1 (configuration not stated)	> 64	0.035 (≈ 0.0666 µM)	–	–	–	–
O=c1cc(N2CCN(CC3CCC(NS(=O)(=O)c4ccccc4)CC3)CC2)sc2c([N+](=O)[O-])cc(C(F)(F)F)cc12 (configuration not stated)	> 64	0.107 (≈ 0.175 µM)	> 93.2	95.3	> 93.2	90.8
O=C(OC1CCC(CN2CCN(c3cc(=O)c4cc(C(F)(F)F)cc([N+](=O)[O-])c4s3)CC2)CC1)C1CCC1 (configuration not stated)	> 64	0.028 (≈ 0.0506 µM)	–	–	–	–
O=c1cc(N2CCN(CC3CCC(OS(=O)(=O)c4ccc5c(c4)CCO5)CC3)CC2)sc2c([N+](=O)[O-])cc(C(F)(F)F)cc12 (configuration not stated)	> 64	< 0.016	–	–	–	–
CC(C)S(=O)(=O)OC1CCC(CN2CCN(c3cc(=O)c4cc(C(F)(F)F)cc([N+](=O)[O-])c4s3)CC2)CC1 (configuration not stated)	> 64	< 0.016	–	–	–	–
O=C(NC1CCC(CN2CCN(c3cc(=O)c4cc(C(F)(F)F)cc([N+](=O)[O-])c4s3)CC2)CC1)c1ccccc1 (configuration not stated)	44.3 (≈ 77.1 µM)	0.244 (≈ 0.425 µM)	> 93.2	90.6	> 93.2	92.9
CCCC(=O)OC1CCC(CN2CCN(c3cc(=O)c4cc(C(F)(F)F)cc([N+](=O)[O-])c4s3)CC2)CC1 (configuration not stated)	> 64	< 0.016	–	–	–	–
O=c1cc(N2CCN(CC3CCC(NP(=O)(Oc4ccccc4)Oc4ccccc4)CC3)CC2)sc2c([N+](=O)[O-])cc(C(F)(F)F)cc12 (configuration not stated)	> 64	0.076 (≈ 0.108 µM)	50.2	66.1	69.2	74.1
O=c1cc(N2CCN(CC3CCC(OS(=O)(=O)c4ccc5ccccc5c4)CC3)CC2)sc2c([N+](=O)[O-])cc(C(F)(F)F)cc12 (configuration not stated)	> 64	< 0.016	–	–	–	–
O=C(OC1CCC(CN2CCN(c3cc(=O)c4cc(C(F)(F)F)cc([N+](=O)[O-])c4s3)CC2)CC1)c1ccccc1 (configuration not stated)	> 64	< 0.016	54.2	68.1	36.2	56.4
O=c1cc(N2CCN(CC3CCCCC3)CC2)sc2c(NO)cc(C(F)(F)F)cc12	–	0.244 (≈ 0.553 µM)	–	47.8	–	19.1
CO[C@H]1/C=C/O[C@@]2(C)Oc3c(C)c(O)c4c(O)c(c(/C=N/N5CCN(C)CC5)c(O)c4c3C2=O)NC(=O)/C(C)=C\C=C\[C@H](C)[C@H](O)[C@@H](C)[C@@H](O)[C@@H](C)[C@H](OC(C)=O)[C@@H]1C [RIFAMPIN]	> 64	0.025 (≈ 0.0304 µM)	–	–	–	–
O=C(OC1CCC(CN2CCN(c3cc(=O)c4cc(C(F)(F)F)cc([N+](=O)[O-])c4s3)CC2)CC1)c1ccncc1 (configuration not stated)	> 64	< 0.016	4.9	1.4	4.5	1

SMILES	IC50 (Vero) [µg/mL]	MIC [1] [µg/mL]	half-life [2] [min]	remaining at 0.5 h [3] [%]	half-life [4] [min]	remaining at 0.5 h [5] [%]
CC(=O)NC1CCC(CN2CCN(c3cc(=O)c4cc(C(F)(F)F)cc([N+](=O)[O-])c4s3)CC2)CC1 (configuration not stated)	> 64	4.71 (≈ 9.19 µM)	> 93.2	94.9	> 93.2	86.8
O=c1cc(N2CCN(CC3CCC(OS(=O)(=O)c4ccccc4)CC3)CC2)sc2c([N+](=O)[O-])cc(C(F)(F)F)cc12 (configuration not stated)	> 64	< 0.016	–	–	–	–
O=C(OC1CCC(CN2CCN(c3cc(=O)c4cc(C(F)(F)F)cc([N+](=O)[O-])c4s3)CC2)CC1)c1ccco1 (configuration not stated)	> 64	< 0.016	< 4.5	0.6	4.5	1
COc1cccc(C(=O)OC2CCC(CN3CCN(c4cc(=O)c5cc(C(F)(F)F)cc([N+](=O)[O-])c5s4)CC3)CC2)c1 (configuration not stated)	> 64	< 0.016	–	–	–	–
Nc1cc(C(F)(F)F)cc2c(=O)cc(N3CCN(CC4CCCCC4)CC3)sc12	–	12.7 (≈ 29.8 µM)	–	69.4	–	0.9
O=C(OC1CCC(CN2CCN(c3cc(=O)c4cc(C(F)(F)F)cc([N+](=O)[O-])c4s3)CC2)CC1)c1cccs1 (configuration not stated)	> 64	< 0.016	5.2	1.8	5.5	2.2
COc1ccccc1C(=O)OC1CCC(CN2CCN(c3cc(=O)c4cc(C(F)(F)F)cc([N+](=O)[O-])c4s3)CC2)CC1 (configuration not stated)	> 64	0.031 (≈ 0.0512 µM)	–	–	–	–
O=C(OC1CCC(CN2CCN(c3cc(=O)c4cc(C(F)(F)F)cc([N+](=O)[O-])c4s3)CC2)CC1)c1ccc(C(F)(F)F)cc1 (configuration not stated)	> 64	< 0.016	16.7	28.8	7	5.2
O=C(OC1CCC(CN2CCN(c3cc(=O)c4cc(C(F)(F)F)cc([N+](=O)[O-])c4s3)CC2)CC1)c1cccc(C(F)(F)F)c1 (configuration not stated)	> 64	< 0.016	–	–	–	–
Cc1cccc(C(=O)OC2CCC(CN3CCN(c4cc(=O)c5cc(C(F)(F)F)cc([N+](=O)[O-])c5s4)CC3)CC2)c1 (configuration not stated)	> 64	< 0.016	–	–	–	–
COP(=O)(NC1CCC(CN2CCN(c3cc(=O)c4cc(C(F)(F)F)cc([N+](=O)[O-])c4s3)CC2)CC1)OC (configuration not stated)	> 64	3.15 (≈ 5.45 µM)	–	–	–	–
O=C(OC1CCC(CN2CCN(c3cc(=O)c4cc(C(F)(F)F)cc([N+](=O)[O-])c4s3)CC2)CC1)c1ccc(F)cc1 (configuration not stated)	> 64	< 0.016	4.9	1.5	5.9	3
COc1ccc(C(=O)OC2CCC(CN3CCN(c4cc(=O)c5cc(C(F)(F)F)cc([N+](=O)[O-])c5s4)CC3)CC2)cc1 (configuration not stated)	> 64	0.121 (≈ 0.2 µM)	17.7	31	9.9	12.2
CC(C)C(=O)OC1CCC(CN2CCN(c3cc(=O)c4cc(C(F)(F)F)cc([N+](=O)[O-])c4s3)CC2)CC1 (configuration not stated)	> 64	< 0.016	–	–	–	–
O=C(OC1CCC(CN2CCN(c3cc(=O)c4cc(C(F)(F)F)cc([N+](=O)[O-])c4s3)CC2)CC1)c1ccc2c(c1)OCC2 (configuration not stated)	> 64	0.179 (≈ 0.29 µM)	–	–	–	–
CC(=O)OC1CCC(CN2CCN(c3cc(=O)c4cc(C(F)(F)F)cc([N+](=O)[O-])c4s3)CC2)CC1 (configuration not stated)	> 64	< 0.016	< 9	0	< 9	0
Nc1cc(C(F)(F)F)cc2c(=O)cc(N3CCN(CC4CCC(O)CC4)CC3)sc12 (configuration not stated)	–	> 32	–	60	–	72.9
O=C(OC1CCC(CN2CCN(c3cc(=O)c4cc(C(F)(F)F)cc([N+](=O)[O-])c4s3)CC2)CC1)c1ccc2ccccc2c1 (configuration not stated)	> 64	0.03 (≈ 0.0479 µM)	–	–	–	–
